The values below come from patent US5663207A, “Gem-dichlorocyclopropanes as antitumor agents” (priority 1995, dated 1997).

A word on the inhibition: it is the share of the control response that was lost under treatment.

“Also recorded” adds a separate entry of the source.

Data set [1] is described as follows: Stability observed during isolation and storage. It is filed as physicochemical. To be noted: on concentration, drying or storage. The procedure: The structures of all compounds were supported by their proton NMR spectra, which were measured on either a Varian EM-360A or XL-300 spectrometer. The spectra are reported in parts per million in CDCl3 unless otherwise noted, with tetramethysilane as the internal standard. Infrared spectra were obtained from KBr pellets on a Beckman Acculab 1 spectrometer and were consistent with the assigned structures. Silica gel (for example, obtained commercially from J. T. Baker) of approximately 40 μm diameter was used for flash chromatography (STILL, W. C., KAHN, M. AND MITRA, A. (1978), "Rapid chromatographic technique for preparative separations with moderate resolutions", Journal of Organic Chemistry, 43, 2923), which was performed at 5-10 psi. Petroleum ether was of bp 30°-60° C. When necessary, solvents or reagents were dried by appropriate methods. Evaporations were carried out in vacuo on a rotary evaporator or under a stream of dry N2. Melting points were taken on a Thomas-Hoover capillary melting point apparatus and are uncorrected. Reaction progress and product purity were monitored by analytical TLC on strips of Eastman Kodak plastic-backed SiO2 60 F254 or Al2 O3 F254. Developed strips were viewed under light of 254 and 365 nm wavelengths. Elemental analyses were done by Midwest Microlab Ltd., Indianapolis, IN. Acceptable elemental results are denoted in Table I by the formula, followed by the elements analyzed. Melting points and yields of all compounds were based on pure samples unless otherwise noted, are listed in Table I. Para-Bromoanisole, p-methoxydeoxybenzoin, anisole, p-methoxybenzaldehyde, and 2,3-bis-(p-methoxyphenyl)-acrylic acid and trans-p-methoxystilbene (the olefin), were purchased from Aldrich & Co. The cyclopropanes 1,1-dichloro-cis-2-(p-hydroxyphenyl)-3-phenylcyclopropane (9), and its trans isomer 1,1-dichloro-trans-2-(p-Hydroxyphenyl)-3phenylcyclopropane (17) were prepared from Compounds 8 & 16, respectively. […] Tamoxifen was obtained from Stuart Pharmaceuticals, Division of ICI Americas, Inc., Wilmington, Del. 19897. MER 25 was obtained from the Merrell Dow Research Institute, Division of Merrell Dow Pharmaceuticals, Inc., Cincinnati, Ohio. Protein Assay Reagent, Pierce Chemical Co., Rockford, Ill. 61105. Diethylstilbestrol, β-estradiol, EDTA, DL-dithiothreitol, Sodium molybdate, and Tris (hydroxymethyl) aminomethane hydrochloride were purchased from Sigma Chemical Co., St. Louis, Mo. 63178.
Essentially, the intermediate olefin acids (Compounds 6 & 12) were obtained from a mixed Perkin and Knoevenagel-type condensation involving the reaction of p-methoxyaldehyde (Compound 4) with phenylacetic acid (Compound 5), or p-methoxyphenylacetic acid (Compound 11) in triethylamine and acetic anhydride. To prepare cis-p-methoxystilbene (Compound 7) or bis-(p-methoxy)-cis-stilbene (Compound 13). Decarboxylation of 6 & 12 with quinoline (prevents isomerizations; KLEIN, J. AND MEYER, A. Y. (1964), "The decarboxylation of α-cyano-and α-carboxycinnamic acids", Journal of Organic Chemistry, 29, 1038), and copper chromite at elevated temperature provided 7 & 13. High temperature during distillation caused 8% isomerization to the trans-isomer (15), which was isolated by column chromatography. Dichlorocarbene generation used the catalytic phase transfer method (21, 37) (used extensively in our laboratory) of 50% aqueous solution of NaOH, CHCl3 and benzyltriethylammonium chloride (TEBA) as the anion transfer agent. […]

Data set [2] concerns MCF-7 human breast cancer cells. Put plainly: In vitro MCF-7 human breast cancer cell growth inhibition assay. The class given is cell-based. The settings on record: for effect on MCF-7 cell growth (in words): 10^-6 M; for inhibition at 1 µM: Homo sapiens, MCF7, read-out: MCF-7 Inhibition. An excerpt:
(§1) The biological evaluation of the test compounds consisted of the in vitro rat cytosolic estradiol receptor binding assay, the in vivo immature mouse uterotrophic (estrogenic) and antiuterotrophic (antiestrogenic) assays, and the in vitro suppression of the proliferation of the ER positive MCF-7 human breast cancer cell line. Estradiol (pure agonist), TAM (agonist in mice and antagonist in MCF-7), MER 25 (pure antagonist) and Analog II (antagonist in mice) were used in the assay as standards.
MCF-7 (estrogen-receptor positive) human breast cancer cells (obtained from the Michigan Cancer Foundation, Detroit, Mich.) were grown at 37° C. in 75 cm^2 tissue culture (T-75) flasks, as monolayer cultures in RPMI 1640 phenol red-free media supplemented with 2 mM L-glutamine, gentamicin (50 μg/mL), penicillin (100 units/mL), streptomycin (100 μg/mL ) and calf serum (5%). Cultures were grown in an incubator 37° C. in a humid 5% CO2 atmosphere, and fed on alternate days. Expotential growth was maintained by subculturing at eight day intervals when the cells per T-75 flask reached 10 to 12×10^6 cells. Cells were trypsinized, washed and plated in multiwell plates at a density of 5×10^4 cells/well in 3 mL of RPMI 1640 media. The cells were allowed to attach and were in logarithmic growth when the test compounds were added. The test compounds (10^-6 M) in the presence or absence of a 10-fold lower dose of estradiol were dissolved in a polyethylene glycol 400: ethanol (55:45) mixture and added in the culture media in duplicate. Control samples received vehicle alone at the same concentration used in the treatment groups. The final concentration of the vehicle mixture was 0.1% of the incubation media. Cell growth was measured on alternate days using the hemocytometric trypan blue exclusion method. Percent inhibition of MCF-7 cells was calculated as the ratio of the control mean cell count per well minus the treatment group mean cell count per well to the control mean cell count per well, multiplied by 100.
^b % MCF7 inhibition was calculated as follows: […]
Thirteen compounds, Analog II, TAM, and MER 25 were tested for their antiproliferative activity in the MCF-7 human breast cancer cell line (Table II). Compounds were tested at a concentration of 10^-6 M in the presence or absence of 10^-7 M estradiol to assess their ability to alter the growth of the calls (Table II). The 10^-6 M concentration was selected since it was reported that the inhibition of the MCF-7 cells by antiestrogens and TAM occurred either at that concentration or less, and were both selective and estrogen receptor specific. Concentrations of antiestrogens greater than 5×10^-6 M were reported to have nonspecific cytotoxic effects (BRIAND, P. AND […], A. E. (1984), "Effect of estrogen and antiestrogen on the human breast cancer cell line MCF-7 adapted to growth at low serum concentration", Cancer Research, 44, 1114).

Another data set deals with T1, estrogen receptor (Rattus norvegicus, UniProt P06211).
T1 construct: ovariectomized rat uterine cytosolic estrogen receptor preparation; from tissue; host or cells: uterine cytosol of ovariectomized Sprague-Dawley rats (immature rats from Sasco are named as uterus source, mature ovariectomized rats)
T1 sequence (P06211 1-600): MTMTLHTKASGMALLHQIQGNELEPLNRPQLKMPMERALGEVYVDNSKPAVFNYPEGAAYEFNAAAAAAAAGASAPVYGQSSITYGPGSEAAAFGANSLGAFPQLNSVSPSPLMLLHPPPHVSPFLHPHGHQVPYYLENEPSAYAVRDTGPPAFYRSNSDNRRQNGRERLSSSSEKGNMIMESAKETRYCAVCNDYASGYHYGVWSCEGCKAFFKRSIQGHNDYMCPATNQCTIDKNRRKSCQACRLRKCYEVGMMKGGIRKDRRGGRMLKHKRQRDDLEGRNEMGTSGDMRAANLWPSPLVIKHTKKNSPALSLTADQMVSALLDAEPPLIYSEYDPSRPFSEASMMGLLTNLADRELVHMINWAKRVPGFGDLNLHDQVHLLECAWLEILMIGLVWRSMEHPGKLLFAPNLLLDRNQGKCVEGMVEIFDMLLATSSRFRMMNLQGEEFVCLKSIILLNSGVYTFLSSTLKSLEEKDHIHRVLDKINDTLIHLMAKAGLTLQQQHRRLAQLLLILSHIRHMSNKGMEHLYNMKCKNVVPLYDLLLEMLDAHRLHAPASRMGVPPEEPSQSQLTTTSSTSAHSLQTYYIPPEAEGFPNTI
The experiment in a line: Receptor binding assay: displacement of [3H]-estradiol from rat uterine cytosol. Also on record: species or system rat (Sprague-Dawley). To be noted: for RBA (relative binding affinity): relative to estradiol = 100%.
Source text: as §1
(§2) Vital-free immature female Swiss-Webster mice were obtained at 17-19 days of age from Sasco weighing 8-10 g, and were used in the uterotrophic and antiuterotrophic assays. Immature female Sprague-Dawley rats, obtained at 17-19 days of age from Sasco, weighing 28-33 g, were used as sources of uteri for the estradiol receptor binding assay. Animals were housed in wire topped polycarbonate cages at six animals per cage, with the environment controlled at 25° C. and a 12 h light/dark cycle. The animals received a diet of Wayne Lab Blox rodent chow and tap water ad libitum.
The RBAs of the test compounds were determined by the displacement of [^3 H]-estradiol in vitro, as described previously (DAY, B. W., […], R. A., JAIN, P., PENTO, J. T., MOUSISSIAN, G. K. AND MEYER, K. L. (1991), "Synthesis and biological evaluation of a series of 1,1-dichloro-2,2,3-triarylcyclopropanes as pure antiestrogens", Journal of Medicinal Chemistry, 34, 842; KORENMAN, S. G. (1969), "Comparative binding affinity of estrogens and its relation to estrogenic potency", Steroid, 13, 163). Mature female Sprague-Dawley rats were ovariectomized at least two weeks prior to the receptor binding experiment. Each test compound was assayed at three concentrations in duplicate over a range of 10^-3 -10^-5 M and 10^-6 -10^-8 M for the estradiol standard. The non-specific binding was determined by a parallel incubation of each compound with the addition of diethylstilbestrol to give a final concentration of 2×10^-5 M DES which was sufficient to saturate all the estrogen receptors present in the cytosolic fraction. Specific displacement for each compound was determined by subtraction of nonspecific displacement from total displacement. The [^3 H]-estradioldisplacement curve for each test compound was determined by linear repression analysis and plotted graphically. The relative binding affinity for each compound was calculated (BLISS, C.I. (1967), "The statistics in biology", McGraw Hill, Inc: New York).
^a Determined by competitive radiometric binding assay with rat
uterine cytosol as a source of receptor, [^3 H]estradiol as tracer,
and dextrancoated charcoal as absorbant for free ligand.
^c Binding affinities are expressed relative to that of estradiol =
100% (RBA = relative binding affinity) and are the average of duplicate
determinations minus nonspecific binding.
The relative binding affinities (RBAs), as determined by the competitive radiometric binding assay and measured by [^3 H]-estradiol displacement from the ovariectomized rat uterine cytosolic estrogen receptor preparation, after subtracting non-specific receptor binding, were calculated for all of the synthesized target compounds, TAM, MER 25, Analog II, and estradiol. The displacement curves were plotted as percent receptor-bound [^3 H]-estrodiol versus concentration of test compounds (not shown) and the receptor binding affinity of each compound is presented in Table II.
On the technique in general: Displacement assays read how much labelled ligand stays bound in the presence of the test substance.

In data set [3] the test system is Immature Swiss-Webster female mice (uterine weight). The experiment in a line: Uterotrophic assay for estrogenic activity in immature mice. The class given is in vivo, mouse (Swiss-Webster). To be noted: for uterine weight response (estrogenic activity, in words): doses of 5, 25 and 100 μg (total dose).
Source text: The biological evaluation of the test compounds consisted of the in vitro rat cytosolic estradiol receptor binding assay, the in vivo immature mouse uterotrophic (estrogenic) and antiuterotrophic (antiestrogenic) assays, and the in vitro suppression of the proliferation of the ER positive MCF-7 human breast cancer cell line.
as §2
Immature Swiss-Webster female mice (8-15 g) at 17-19 days of age were used. Estradiol was used in the dosage range of […] (total dose) as the assay standard. Each cyclopropyl analogue was examined at doses of 5, 25, and 100 μg (total dose). […] Estrogenic activity was measured as an increase in uterine weight produced by each test compound.

The subject of data set [4] is MCF-7 human breast cancer cells. The settings on record: cited from earlier work.

In the case of `Oc1ccc([C@H]2[C@@H](c3ccccc3)C2(Cl)Cl)cc1` (relative stereo) [Compound 9, 1,1-dichloro-cis-2-(p-hydroxyphenyl)-3-phenylcyclopropane], in data set [1], the “stability (in words)” value is “instability to air and light; also recorded: underwent gradual color changes when concentrated”.
In the case of `Oc1ccc([C@H]2[C@H](c3ccccc3)C2(Cl)Cl)cc1` (relative stereo) [Compound 17, 1,1-dichloro-trans-2-(p-hydroxyphenyl)-3-phenylcyclopropane], in data set [1], the “stability (in words)” value is listed as “underwent gradual color changes when concentrated”.
For `COc1ccc(C2(c3ccc(OC)cc3)C(c3ccccc3)C2(Cl)Cl)cc1` (stereo not drawn) [Compound 35, 1,1-Dichloro-2,2-bis-(p-methoxyphenyl)-3-phenylcyclopropane], in data set [2], the “effect on MCF-7 cell growth (in words)” value is recorded as “did not alter cell growth” and the inhibition at 1 µM is less than 10%. Also, the “[3H]-estradiol displacement curve (in words)” value on estrogen receptor (rat uterine cytosolic estrogen receptor) was “dose-dependent displacement curves with shallower slopes than their acetoxy and phenolic analogues”. Further, the “RBA (relative binding affinity)” value at estrogen receptor (given as dash with footnote e) is on record as “--^e (Less than 0.01%.)”. Besides, the “uterine weight response (estrogenic activity, in words)” value in data set [3] is “slight increase in uterine weight at doses of 25 and 100 μg”. Further, the “uterotrophic response on retest (in words)” value in data set [3] (retested at 25, 100, and 250 μg) was “no significant uterotrophic responses”.
As to `Oc1ccc(C2(c3ccc(O)cc3)C(c3ccccc3)C2(Cl)Cl)cc1` (stereo not drawn) [Compound 36], in data set [1], the “stability (in words)” value is on record as “Drying of phenol 36 at a high temperature resulted in the formation of an indene”.
`CC(=O)Oc1ccc(C2(c3ccc(OC(C)=O)cc3)C(c3ccccc3)C2(Cl)Cl)cc1` (stereo not drawn) [Compound 37, 1,1-Dichloro-2,2-bis-(p-acetoxyphenyl)-3-phenylcyclopropane]: in data set [2], the “effect on MCF-7 cell growth (in words)” value is “did not alter cell growth” and the inhibition at 1 µM was less than 10%. The “RBA (relative binding affinity)” value on estrogen receptor (average of duplicate determinations minus nonspecific binding) stood at 0.08%. Also, the “uterine weight response (estrogenic activity, in words)” value in data set [3] is on record as “well below the control group”.
As to `CC/C(=C(\c1ccccc1)c1ccc(OCCN(C)C)cc1)c1ccccc1` [Tamoxifen], the “MCF-7 Inhibition” value in data set [4] (10^-6 M, Day et al., J. Med. Chem. 34, 842-851 (1991)) is 25.6%. In addition, the “concentration at which inhibition of MCF-7 cells occurred” value in data set [4] (reported as selective and estrogen receptor specific) was ≤ 10^-6 M.
